Here are results for 24 compounds from ChEMBL document CHEMBL4334450, “Green synthesis, biological evaluation, molecular docking studies and 3D-QSAR analysis of novel phenylalanine linked quinazoline-4(3H)-one-sulphonamide hybrid entities distorting the malarial reductase activity in folate pathway” (Bioorg Med Chem, 2019).

Converted amounts (≈) assume the structure as drawn.

The test system of series [1] is Plasmodium falciparum. The experiment in a line: Antimalarial activity against Plasmodium falciparum FCR3 infected in human erythrocytes by Giemsa staining analysis. The series is classed as functional, organism-based.
The next series concerns the target T1, Dihydrofolate reductase (Bos taurus, UniProt P00376).
T1 sequence (P00376 whole entry): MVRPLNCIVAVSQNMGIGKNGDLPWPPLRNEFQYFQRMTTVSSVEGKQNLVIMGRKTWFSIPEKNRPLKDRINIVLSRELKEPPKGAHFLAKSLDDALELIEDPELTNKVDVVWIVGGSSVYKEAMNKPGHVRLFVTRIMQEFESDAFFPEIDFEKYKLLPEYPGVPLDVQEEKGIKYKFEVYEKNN
The experiment in a line: Inhibition of bovine liver DHFR using FH2 as substrate incubated for 2 mins followed by substrate addition.

Series [2] deals with Plasmodium falciparum. The experiment in a line: Antiplasmodial activity against Plasmodium falciparum infected in human RBC assessed as reduction in parasite LDH activity by spectrophotometric assay. It counts as functional, organism-based.
For series [3], the system named is Plasmodium falciparum. In words: Antiplasmodial activity against Plasmodium falciparum infected in human RBC […] by MTT assay. It counts as functional, organism-based. On the technique in general: Tetrazolium dyes change colour on reduction, which living cells bring about.
The subject of a further series is Erythrocyte. In words: Cytotoxicity against human RBC assessed as reduction in cell viability by MTT assay. The series is classed as cell-based.
Series [4] in a line: Therapeutic index, ratio of CC50 for human RBC to EC50 for Plasmodium falciparum infected in human RBC. It counts as toxicity. The note with it: human red blood cells (RBC), read-out: Ratio CC50/EC50.
In the next series the test system is Vero. The experiment in a line: Cytotoxicity against African green monkey Vero cells assessed as reduction in cell viability incubated for 72 hrs by CellTiter 96 Non-radioactive Cell Proliferation Assay. It counts as cell-based. The note with it: Chlorocebus sabaeus.
The next series relates to bovine liver DHFR. The experiment in a line: Therapeutic index, ratio of IC50 for African green monkey Vero cells to IC50 for bovine liver DHFR. It counts as toxicity. The conditions noted are these: read-out: Ratio IC50.

In the series on Plasmodium falciparum [1], `CC(=O)Nc1ccc(S(=O)(=O)NC(Cc2ccccc2)c2nc3ccccc3c(=O)n2/N=C/c2cccc([N+](=O)[O-])c2)cc1` (centres undefined) yielded an IC50 of 1.12 mg/L (≈ 1.83 µM).

As for `CC(=O)Nc1ccc(S(=O)(=O)NC(Cc2ccccc2)c2nc3ccccc3c(=O)n2/N=C/c2cccc(F)c2)cc1` (centres undefined), the IC50 against Dihydrofolate reductase was 0.0497 µM; in the series on Plasmodium falciparum [1], 0.084 mg/L (≈ 0.144 µM); in the series with Plasmodium falciparum [2], 4672 ppm; with Vero, 15 mg/L (≈ 25.7 µM). This compound had an EC50 in the series with Plasmodium falciparum [3] of 2831 ppm. The CC50 in the series with Erythrocyte is reported as 58408 ppm. Moreover, the selectivity ratio in series [4] amounted to 20.6; in the series with bovine liver DHFR it was 517.

As to `CC(=O)Nc1ccc(S(=O)(=O)NC(Cc2ccccc2)c2nc3ccccc3c(=O)n2/N=C/c2ccc(C)cc2)cc1` (centres undefined), the IC50 against Dihydrofolate reductase was 0.0949 µM; in the series on Plasmodium falciparum [1], 0.067 mg/L (≈ 0.116 µM); with Plasmodium falciparum [2] it was 8432 ppm; in the series with Vero it was 15 mg/L (≈ 25.9 µM). This compound also gave an EC50 in the series on Plasmodium falciparum [3] of 1106 ppm. Also, the selectivity ratio in series [4] was 1670; in the series on bovine liver DHFR, 273.

Take `CC(=O)Nc1ccc(S(=O)(=O)NC(Cc2ccccc2)c2nc3ccccc3c(=O)n2/N=C/c2ccccc2C)cc1` (centres undefined): the IC50 with Plasmodium falciparum [1] was 1.26 mg/L (≈ 2.17 µM).

In the series with Plasmodium falciparum [1], `CC(=O)Nc1ccc(S(=O)(=O)NC(Cc2ccccc2)c2nc3ccccc3c(=O)n2/N=C/c2cccc(Br)c2)cc1` (centres undefined) registered an IC50 of 0.92 mg/L (≈ 1.43 µM).

Turning to `CC(=O)Nc1ccc(S(=O)(=O)NC(Cc2ccccc2)c2nc3ccccc3c(=O)n2/N=C/c2ccc(Cl)cc2)cc1` (centres undefined), the IC50 in the series with Plasmodium falciparum [1] was 0.84 mg/L (≈ 1.4 µM).

`CC(=O)Nc1ccc(S(=O)(=O)NC(Cc2ccccc2)c2nc3ccccc3c(=O)n2/N=C/c2ccc(Br)cc2)cc1` (centres undefined): the IC50 is 0.129 µM against Dihydrofolate reductase, 0.092 mg/L (≈ 0.143 µM) in the series on Plasmodium falciparum [1], 96.38 ppm in the series on Plasmodium falciparum [2] and 15 mg/L (≈ 23.3 µM) with Vero. In the series on Plasmodium falciparum [3], the EC50 was 115.61 ppm. For the same compound, the CC50 in the series on Erythrocyte is on record as 10575 ppm. Further, the selectivity ratio was found to be 91.5 in series [4] and 181 with bovine liver DHFR.

In the case of `COc1ccccc1/C=N/n1c(C(Cc2ccccc2)NS(=O)(=O)c2ccc(NC(C)=O)cc2)nc2ccccc2c1=O` (centres undefined), the IC50 with Plasmodium falciparum [1] turned out to be 1.05 mg/L (≈ 1.77 µM).

`CC(=O)Nc1ccc(S(=O)(=O)NC(Cc2ccccc2)c2nc3ccccc3c(=O)n2/N=C/c2ccc(O)cc2)cc1` (centres undefined) displayed an IC50 with Plasmodium falciparum [1] of 0.68 mg/L (≈ 1.17 µM).

Take `COc1cccc(/C=N/n2c(C(Cc3ccccc3)NS(=O)(=O)c3ccc(NC(C)=O)cc3)nc3ccccc3c2=O)c1` (centres undefined): the IC50 in the series on Plasmodium falciparum [1] was 1.01 mg/L (≈ 1.7 µM).

In turn, `COc1ccc(/C=N/n2c(C(Cc3ccccc3)NS(=O)(=O)c3ccc(NC(C)=O)cc3)nc3ccccc3c2=O)cc1` (centres undefined) displayed an IC50 in the series on Plasmodium falciparum [1] of 0.72 mg/L (≈ 1.21 µM).

As to `CC(=O)Nc1ccc(S(=O)(=O)NC(Cc2ccccc2)c2nc3ccccc3c(=O)n2/N=C/c2ccccc2F)cc1` (centres undefined), the IC50 in the series on Plasmodium falciparum [1] is 1.28 mg/L (≈ 2.19 µM).

On to `CC(=O)Nc1ccc(S(=O)(=O)NC(Cc2ccccc2)c2nc3ccccc3c(=O)n2/N=C/c2ccccc2)cc1` (centres undefined), for which the IC50 in the series with Plasmodium falciparum [1] turned out to be 1.28 mg/L (≈ 2.26 µM).

Compound `CC(=O)Nc1ccc(S(=O)(=O)NC(Cc2ccccc2)c2nc3ccccc3c(=O)n2/N=C/c2ccccc2Cl)cc1` (centres undefined) returned an IC50 in the series on Plasmodium falciparum [1] of 0.72 mg/L (≈ 1.2 µM).

For the compound `CC(=O)Nc1ccc(S(=O)(=O)NC(Cc2ccccc2)c2nc3ccccc3c(=O)n2/N=C/c2ccccc2[N+](=O)[O-])cc1` (centres undefined), the IC50 in the series with Plasmodium falciparum [1] worked out at 1.52 mg/L (≈ 2.49 µM).

With `CC(=O)Nc1ccc(S(=O)(=O)NC(Cc2ccccc2)c2nc3ccccc3c(=O)n2/N=C/c2ccc(F)cc2)cc1` (centres undefined), the IC50 on Dihydrofolate reductase is 0.0617 µM; with Plasmodium falciparum [1], 0.067 mg/L (≈ 0.115 µM); with Plasmodium falciparum [2] it was 3402 ppm; with Vero, 15 mg/L (≈ 25.7 µM). Moreover, the EC50 with Plasmodium falciparum [3] is 1909 ppm. In addition, the CC50 with Erythrocyte turned out to be 29330 ppm. Moreover, the figures for the selectivity ratio (in series [4]; in the series on bovine liver DHFR) were 15.4 and 417, respectively.

In the case of `CC(=O)Nc1ccc(S(=O)(=O)NC(Cc2ccccc2)c2nc3ccccc3c(=O)n2/N=C/c2ccccc2O)cc1` (centres undefined), the IC50 in the series on Plasmodium falciparum [1] was 0.78 mg/L (≈ 1.34 µM).

For `CC(=O)Nc1ccc(S(=O)(=O)NC(Cc2ccccc2)c2nc3ccccc3c(=O)n2/N=C/c2cccc(O)c2)cc1` (centres undefined), the IC50 in the series with Plasmodium falciparum [1] turned out to be 1.24 mg/L (≈ 2.13 µM).

Turning to `CC(=O)Nc1ccc(S(=O)(=O)NC(Cc2ccccc2)c2nc3ccccc3c(=O)n2/N=C/c2ccc([N+](=O)[O-])cc2)cc1` (centres undefined), the IC50 in the series with Plasmodium falciparum [1] was determined as 0.72 mg/L (≈ 1.18 µM).

On to `CC(=O)Nc1ccc(S(=O)(=O)NC(Cc2ccccc2)c2nc3ccccc3c(=O)n2/N=C/c2cccc(Cl)c2)cc1` (centres undefined), for which the IC50 against Dihydrofolate reductase was 0.0817 µM; in the series with Plasmodium falciparum [1], 0.082 mg/L (≈ 0.137 µM); in the series on Plasmodium falciparum [2], 524.8 ppm; in the series on Vero, 15 mg/L (≈ 25 µM). The EC50 with Plasmodium falciparum [3] is 368.97 ppm. In addition, the CC50 in the series with Erythrocyte is listed as 18850 ppm. For the same compound, the selectivity ratio in series [4] amounted to 51.1; in the series on bovine liver DHFR, 306.

Take `CC(=O)Nc1ccc(S(=O)(=O)NC(Cc2ccccc2)c2nc3ccccc3c(=O)n2/N=C/c2ccccc2Br)cc1` (centres undefined): the IC50 in the series with Plasmodium falciparum [1] worked out at 0.7 mg/L (≈ 1.09 µM).

Compound `CC(=O)Nc1ccc(S(=O)(=O)NC(Cc2ccccc2)c2nc3ccccc3c(=O)n2/N=C/c2cccc(C)c2)cc1` (centres undefined) returned an IC50 with Plasmodium falciparum [1] of 0.78 mg/L (≈ 1.35 µM).

`CCN(CC)CCCC(C)Nc1ccnc2cc(Cl)ccc12` (centres undefined) [CHLOROQUINE] gave an EC50 in the series on Plasmodium falciparum [3] of 28.97 ppm. Further, the CC50 in the series on Erythrocyte is listed as 466.66 ppm.

In the series on Plasmodium falciparum [1], `C=C[C@H]1CN2CC[C@H]1C[C@H]2[C@H](O)c1ccnc2ccc(OC)cc12` [QUININE] had an IC50 of 0.268 mg/L (≈ 0.826 µM).
